{"source": "ChEMBL document CHEMBL1139737", "about": "“Distachyasin: A new antioxidant metabolite from the leaves of Carex distachya” (Bioorg Med Chem Lett, 2006)", "assay_type_in_all_cases": "functional", "key": {"[1]": {"assay": "Inhibition of TBARS formation"}, "[2]": {"assay": "Superoxide radical scavenging activity at 0.5 mg/ml"}, "[3]": {"assay": "Hydrogen peroxide radical scavenging activity at 0.1 mg/ml"}, "[4]": {"assay": "Hydrogen peroxide radical scavenging activity at 0.2 mg/ml"}, "[5]": {"assay": "Nitric oxide radical scavenging activity assessed as reduction in nitrite concentration at 0.5 mg/ml", "design": "scale not given: the % may be the effect or the level left"}, "[6]": {"assay": "Nitric oxide radical scavenging activity"}, "[7]": {"assay": "Inhibition of TBARS formation at 0.5 mg/ml"}}, "data": [{"smiles": "COC1=CC(=O)[C@@]2(O)C[C@H]3[C@H](c4ccccc4C3(C)C)[C@@H](O)C2=C1", "values": [{"measurement": "Activity", "setting": "[1]", "result": "Dose-dependent effect"}, {"measurement": "Activity", "setting": "[2]", "result": 60, "unit": "%"}, {"measurement": "Activity", "setting": "[3]", "result": 32, "unit": "%"}, {"measurement": "Activity", "setting": "[4]", "result": 39, "unit": "%"}, {"measurement": "Activity", "setting": "[5]", "result": 10.7, "unit": "%"}, {"measurement": "Activity", "setting": "[6]", "result": "Dose-dependent effect"}, {"measurement": "inhibition", "setting": "[7]", "result": 59, "unit": "%"}]}]}
